In ChEMBL document CHEMBL5108042, “Design and synthesis of eugenol/isoeugenol glycoconjugates and other analogues as antifungal agents against Aspergillus fumigatus” (RSC Med Chem, 2022):
Values after ≈ are worked out from the molar mass of the structure shown. Active and inactive are the calls of the source. The calls are words filed in the database; no cut-off is given here.

What was measured:
Aspergillus fumigatus [1] = assay: Antifungal activity against Aspergillus fumigatus ATCC 46645 assessed as inhibition of conidial and mycelial growth incubated for 5 days by CLSI protocol based microbroth dilution method; assay type: functional; conditions: ATCC 46645, 120 h, time 5 day
Aspergillus fumigatus [2] = assay: Antifungal activity against Aspergillus fumigatus ATCC 46645 assessed as inhibition of fungal growth incubated for 5 days by CLSI protocol based microbroth dilution method; assay type: functional, organism-based; conditions: ATCC 46645, 120 h
Aspergillus fumigatus [3] = assay: Antifungal activity against Aspergillus fumigatus ATCC 46645 assessed as absence of melanin layer at IC50 concentration by transmission electron microscopic analysis; assay type: functional, organism-based
Aspergillus fumigatus [4] = assay: Antifungal activity against Aspergillus fumigatus ATCC 46645 assessed as decrease in DHN-melanin content at IC50 concentration incubated for 5 days by UV-vis spectrophotometric analysis; assay type: functional, organism-based; conditions: time 5.0 day
Cell membrane = assay: Induction of cell membrane disruption in Aspergillus fumigatus ATCC 46645 assessed as accumulation of cytoplasmic content at IC50 concentration by transmission electron microscopic analysis; assay type: subcellular
Aspergillus fumigatus [5] = assay: Antifungal activity against Aspergillus fumigatus ATCC 46645 assessed as decrease in conidia formation at IC50 concentration by UV-vis spectrophotometric analysis; assay type: functional, organism-based
Aspergillus fumigatus [6] = assay: Antifungal activity against Aspergillus fumigatus ATCC 46645 assessed as decrease in number of conidia at IC50 concentration by scanning electron microscopic analysis; assay type: functional, organism-based
[7] = Cytotoxicity against human L132 cells assessed as inhibition of cell growth incubated for 24 hrs by MTT assay; assay type: toxicity, cell-based
Aspergillus fumigatus [8] = assay: Antifungal activity against Aspergillus fumigatus ATCC 46645 assessed as decrease in DHN-melanin content by measuring absorption spectra at optical density 275 nm at IC50 concentration incubated for 5 days by UV-vis spectrophotometric analysis; assay type: functional; conditions: time 5 day
Aspergillus fumigatus [9] = assay: Antifungal activity against Aspergillus fumigatus ATCC 46645 assessed as smooth conidial surface with absence of protrusions at IC50 concentration by scanning electron microscopic analysis; assay type: functional, organism-based
[10] = Selectivity index, ratio of CC50 for cytotoxicity against human L-132 cells assessed as inhibition of cell growth to IC50 for antifungal activity against Aspergillus fumigatus ATCC 46645 assessed as inhibition of fungal growth; assay type: toxicity, cell-based; conditions: read-out: Ratio IC50
Aspergillus fumigatus [11] = assay: Antibiofilm activity against Aspergillus fumigatus ATCC 46645 at 69.53 to 86.92 uM incubated for 24 hrs by MTT assay; assay type: functional, organism-based; conditions: dose 69.53-86.92 µM
Aspergillus fumigatus [12] = assay: Antibiofilm activity against Aspergillus fumigatus ATCC 46645 assessed as absence of ECM on hyphae at 69.53 to 86.92 uM; assay type: functional, organism-based; conditions: dose 69.53-86.92 µM
[13] = Cytotoxicity against human L132 cells assessed as inhibition of cell growth; assay type: toxicity, cell-based
Aspergillus fumigatus [14] = assay: Antibiofilm activity against Aspergillus fumigatus ATCC 46645 assessed as absence of ECM on hyphae at 243.60 to 304.5 uM; assay type: functional, organism-based; conditions: dose 243.6-304.5 µM
Aspergillus fumigatus [15] = assay: Antibiofilm activity against Aspergillus fumigatus ATCC 46645 at 243.60 to 304.5 uM incubated for 24 hrs by MTT assay; assay type: functional, organism-based; conditions: dose 243.6-304.5 µM

Row | Compound | MIC (Aspergillus fumigatus [1]) [µM] | IC50 (Aspergillus fumigatus [2]) [µM] | further results
1 | C=CCc1ccc(OCc2cn([C@@H]3O[C@H](COC(C)=O)[C@@H](O[C@H]4O[C@H](COC(C)=O)[C@@H](OC(C)=O)[C@H](OC(C)=O)[C@H]4OC(C)=O)[C@H](OC(C)=O)[C@H]3OC(C)=O)nn2)c(OC)c1 | > 20 | 14.5 | –
2 | C/C=C/c1ccc(OCc2cn([C@@H]3O[C@H](COC(C)=O)[C@@H](OC(C)=O)[C@H](OC(C)=O)[C@H]3OC(C)=O)nn2)c(OC)c1 | > 20 | 21.7 | –
3 | C#CCOc1ccc(/C=C/C)cc1OC | > 20 | > 25 | –
4 | C=CCc1ccc(OCc2cn([C@@H]3O[C@H](COC(C)=O)[C@@H](OC(C)=O)[C@H](OC(C)=O)[C@H]3OC(C)=O)nn2)c(OC)c1 | 10.9 (≈ 6.25 µg/mL) | 5.42 | Activity (Aspergillus fumigatus [3]): Active; Activity (Aspergillus fumigatus [4]): Active; Activity (Cell membrane): Active; Activity (Aspergillus fumigatus [5]): Active; Activity (Aspergillus fumigatus [6]): Active; CC50 at 24 h [7]: 43.5 µM; Activity (Aspergillus fumigatus [8]): 0.295; Activity (Aspergillus fumigatus [9]): Active; selectivity ratio [10]: 8.01; Activity (Aspergillus fumigatus [11]): Active; Activity (Aspergillus fumigatus [12]): Active
5 | C=CCc1ccc(OCc2cn(C[C@@H](O)Cc3ccc(O[Si](C)(C)C(C)(C)C)c(OC)c3)nn2)c(OC)c1 | > 20 | > 25 | –
6 | CCCc1ccc(OCc2cn(C[C@@H](O)Cc3ccc(O[Si](C)(C)C(C)(C)C)c(OC)c3)nn2)c(OC)c1 | > 20 | > 25 | –
7 | CCCc1ccc(OCc2cn([C@@H]3O[C@H](COC(C)=O)[C@@H](OC(C)=O)[C@H](OC(C)=O)[C@H]3OC(C)=O)nn2)c(OC)c1 | > 20 | > 25 | –
8 | C=CCc1ccc(OCc2cn([C@@H]3O[C@H](COC(C)=O)[C@H](OC(C)=O)[C@H](OC(C)=O)[C@H]3OC(C)=O)nn2)c(OC)c1 | > 20 | 10.9 | –
9 | C/C=C/c1ccc(O)c(OC)c1 | 3800 (≈ 624 µg/mL) | 1900 | Activity (Aspergillus fumigatus [3]): Active; Activity (Cell membrane): Active; Activity (Aspergillus fumigatus [6]): Active; Activity (Aspergillus fumigatus [8]): 0.399; Activity (Aspergillus fumigatus [9]): Active
10 | C#CCOc1ccc(CC=C)cc1OC | > 20 | > 25 | –
11 | C=CCc1ccc(OCc2cn([C@@H]3O[C@H](CO)[C@@H](O)[C@H](O)[C@H]3O)nn2)c(OC)c1 | > 20 | > 25 | –
12 | CCCc1ccc(OCc2cn([C@@H]3O[C@H](CO)[C@H](O)[C@H](O)[C@@H]3O)nn2)c(OC)c1 | > 20 | > 25 | –
13 | C#CCOc1ccc(CCC)cc1OC | > 20 | > 25 | –
14 | C/C=C/c1ccc(OCc2cn([C@@H]3O[C@H](COC(C)=O)[C@@H](O[C@H]4O[C@H](COC(C)=O)[C@@H](OC(C)=O)[C@H](OC(C)=O)[C@H]4OC(C)=O)[C@H](OC(C)=O)[C@H]3OC(C)=O)nn2)c(OC)c1 | > 20 | 14.5 | –
15 | C/C=C/c1ccc(OCc2cn(C[C@@H](O)Cc3ccc(O[Si](C)(C)C(C)(C)C)c(OC)c3)nn2)c(OC)c1 | > 20 | > 25 | –
16 | CCCc1ccc(O)c(OC)c1 | 15.5 (≈ 2.58 µg/mL) | 9.39 | Activity (Aspergillus fumigatus [3]): Active; Activity (Aspergillus fumigatus [4]): Active; Activity (Cell membrane): Active; Activity (Aspergillus fumigatus [5]): Active; Activity (Aspergillus fumigatus [6]): Active; CC50 at 24 h [7]: 150 µM; Activity (Aspergillus fumigatus [8]): 0.176; Activity (Aspergillus fumigatus [9]): Active; Activity (Aspergillus fumigatus [14]): Active; selectivity ratio [10]: 16; Activity (Aspergillus fumigatus [15]): Active
17 | COc1cc(C[C@H](O)CN=[N+]=[N-])ccc1O[Si](C)(C)C(C)(C)C | > 20 | > 25 | –
18 | C=CCc1ccc(O)c(OC)c1 [EUGENOL] | 3800 (≈ 624 µg/mL) | 1900 | –

Second part, led by results:

Row | MIC (Aspergillus fumigatus [1]) [µM] | Compound | IC50 (Aspergillus fumigatus [2]) [µM] | further results
19 | 0.216 (≈ 0.2 µg/mL) | C[C@@H]1[C@H](O)[C@@H](C)/C=C/C=C/C=C/C=C/C=C/C=C/C=C/[C@H](O[C@@H]2O[C@H](C)[C@@H](O)[C@H](N)[C@@H]2O)C[C@@H]2O[C@](O)(C[C@@H](O)C[C@@H](O)[C@H](O)CC[C@@H](O)C[C@@H](O)CC(=O)O[C@H]1C)C[C@H](O)[C@H]2C(=O)O [AMPHOTERICIN B] | 1.08 | Activity (Aspergillus fumigatus [8]): 1.126; CC50 [13]: 5.4 µM
20 | > 20 | C/C=C/c1ccc(OCc2cn([C@@H]3O[C@H](COC(=O)c4ccccc4)[C@H](OC(=O)c4ccccc4)[C@H](OC(=O)c4ccccc4)[C@H]3OC(=O)c3ccccc3)nn2)c(OC)c1 | 15.2 | –
21 | > 20 | C/C=C/c1ccc(OCc2cn(C3O[C@@H](C)[C@H](OC(C)=O)[C@@H](OC(C)=O)[C@H]3OC(C)=O)nn2)c(OC)c1 (some centres not stated) | 12.1 | –
22 | > 20 | C=CCc1ccc(O[Si](C)(C)C(C)(C)C)c(OC)c1 | > 25 | –
23 | > 20 | C/C=C/c1ccc(OCc2cn([C@@H]3O[C@H](COC(C)=O)[C@@H](O[C@@H]4O[C@H](COC(C)=O)[C@H](OC(C)=O)[C@H](OC(C)=O)[C@H]4OC(C)=O)[C@H](OC(C)=O)[C@H]3OC(C)=O)nn2)c(OC)c1 | 14.5 | –
24 | > 20 | COc1cc(C[C@H](O)CO)ccc1O[Si](C)(C)C(C)(C)C | > 25 | –
25 | 0.552 (≈ 0.39 µg/mL) | CCC(C)n1ncn(-c2ccc(N3CCN(c4ccc(OCC5COC(Cn6cncn6)(c6ccc(Cl)cc6Cl)O5)cc4)CC3)cc2)c1=O (configuration not stated) [ITRACONAZOLE] | – | –
26 | > 20 | C/C=C/c1ccc(OCc2cn([C@@H]3O[C@H](COC(C)=O)[C@H](OC(C)=O)[C@H](OC(C)=O)[C@H]3OC(C)=O)nn2)c(OC)c1 | 10.9 | –
27 | > 20 | C=CCc1ccc(OCc2cn([C@@H]3O[C@H](COC(C)=O)[C@@H](O[C@@H]4O[C@H](COC(C)=O)[C@H](OC(C)=O)[C@H](OC(C)=O)[C@H]4OC(C)=O)[C@H](OC(C)=O)[C@H]3OC(C)=O)nn2)c(OC)c1 | 14.5 | –
